Test results reported in ChEMBL document CHEMBL1131315, “Synthesis and anticonvulsant activity of 2(3H)-benzoxazolone and 2(3H)-benzothiazolone derivatives” (J Med Chem, 1998).
Calls of active or inactive are those of the source. No cut-off for these calls is given here.

Columns and labels:
Mus musculus [1] = experiment: Time of peak effect in mice following i.p. administration.; assay type: functional
Mus musculus [2] = experiment: Anticonvulsant activity in Maximal electroshock seizure test at 100 mg/kg i.p. in mice.; assay type: functional, organism-based; parameters: dose 100 mg/kg
Mus musculus [3] = experiment: The compound was tested for anticonvulsant activity in Maximal electroshock seizure test (MES) for 4 hr in mice(ip); active at 100 mg/kg; assay type: functional, organism-based; parameters: dose 100 mg/kg
Mus musculus [4] = experiment: The compound was tested to inhibit 50% of induced maximal electroshock seizure in mice on ip administration; assay type: functional
Mus musculus [5] = experiment: Inhibition of s.c. pentylenetetrazole induced seizure in mice following i.p. administration.; assay type: functional
Mus musculus [6] = experiment: The compound was tested for anticonvulsant activity in subcutaneous pentylenetetrazole seizure test (sc Met) for 30 min in mice; active at 100 mg/kg; assay type: functional, organism-based; parameters: dose 100 mg/kg
Mus musculus [7] = experiment: The compound was tested for anticonvulsant activity in subcutaneous pentylenetetrazole seizure test (sc Met) for 4 hr in mice; active at 300 mg/kg; assay type: functional, organism-based; parameters: dose 300 mg/kg
Rattus norvegicus [8] = experiment: The compound was tested for the effective oral dose to inhibit 50% of the anticonvulsant in rats.(Value in parenthesis indicate 95% confidence limits).; assay type: functional
Rattus norvegicus [9] = experiment: The compound was tested peroral dose of 25 mg/kg for 0.5 hours for rotarod toxicity; 0/4; assay type: functional; conditions: route oral
Rattus norvegicus [10] = experiment: The compound was tested peroral dose of 25 mg/kg for 1 hour for rotarod toxicity; 0/4; assay type: functional; conditions: route oral
Rattus norvegicus [11] = experiment: The compound was tested peroral dose of 25 mg/kg for 2 hours for rotarod toxicity; 0/4; assay type: functional; conditions: route oral
Rattus norvegicus [12] = experiment: The compound was tested peroral dose of 25 mg/kg for 4 hours for rotarod toxicity; 0/4; assay type: functional; conditions: route oral
Rattus norvegicus [13] = experiment: The compound was tested per os dose of 25 mg/kg for 0.5 hours for maximal electroshock test on rats; MES= 3/4; assay type: functional
Rattus norvegicus [14] = experiment: The compound was tested per os dose of 25 mg/kg for 1 hour for maximal electroshock test on rats; MES= 3/4; assay type: functional
Rattus norvegicus [15] = experiment: The compound was tested per os dose of 25 mg/kg for 2 hours for maximal electroshock test on rats; MES= 2/4; assay type: functional
Rattus norvegicus [16] = experiment: The compound was tested per os dose of 25 mg/kg for 4 hours for maximal electroshock test on rats; MES= 2/4; assay type: functional
Rattus norvegicus [17] = experiment: The compound was tested per os dose of 30 mg/kg for 0.25 hours for maximal electroshock test on rats; MES= 0/4; assay type: functional
Rattus norvegicus [18] = experiment: (§1) The compound was tested for the toxic dose on oral administration.; assay type: functional
[19] = The compound was tested for neurologic toxicity (rotarod) test for 30 min in mice; active at 100 mg/kg; assay type: organism-based; parameters: dose 100 mg/kg; conditions: mouse, in vivo, 0.5 h
[20] = The compound was determined for the dose (mg/kg) by rotarod test at the time of peak neurotoxic effect in mice on ip administration.; assay type: ADME, organism-based; conditions: mouse, in vivo
[21] = The compound was tested for time of peak effect (TPE) in hours for its toxicity in mice on ip administration.; assay type: organism-based; conditions: mouse, in vivo
[22] = The compound was tested for neurologic toxicity (rotarod) test for 4 hours in mice; active at 300 mg/kg; assay type: organism-based; parameters: dose 300 mg/kg; conditions: mouse, in vivo
[23] = (§2) Protective index value is the ratio between ED50 and TD50; assay type: functional
Rattus norvegicus [24] = experiment: The compound was tested peroral dose of 25 mg/kg for 0.25 hours for rotarod toxicity; 0/4; assay type: functional; conditions: route oral
Mus musculus [25] = experiment: The compound was tested to inhibit 50% of induced subcutaneous pentylenetetrazole seizure in mice on ip administration; assay type: functional
Rattus norvegicus [26] = experiment: The compound was tested for the toxic dose on oral administration; assay type: functional
Mus musculus [27] = experiment: The compound was tested for anticonvulsant activity in Maximal electroshock seizure test for 30 min in mice(ip); active at 30 mg/kg; assay type: functional, organism-based; parameters: dose 30 mg/kg
Mus musculus [28] = experiment: The compound was tested for anticonvulsant activity in Maximal electroshock seizure test (MES) for 4 hr in mice(ip); active at 300 mg/kg; assay type: functional, organism-based; parameters: dose 300 mg/kg
Mus musculus [29] = experiment: The compound was tested to inhibit 50% of induced maximal electroshock seizure in mice on ip administration.; assay type: functional
Mus musculus [30] = experiment: Anticonvulsant activity in subcutaneous pentylenetetrazole seizure test for 30 min in mice; No activity/toxicity at 300 mg/kg.; assay type: functional, organism-based; parameters: dose 300 mg/kg
Mus musculus [31] = experiment: The anticonvulsant activity in subcutaneous pentylenetetrazole seizure test (sc Met) for 4 hr in mice; no activity or no toxicity at 300 mg/kg; assay type: functional, organism-based; parameters: dose 300 mg/kg
Rattus norvegicus [32] = experiment: The compound was tested for the effective oral dose to inhibit 50% of the anticonvulsant in rats; assay type: functional
Rattus norvegicus [33] = experiment: The compound was tested peroral dose of 40 mg/kg for 0.25 hours for rotarod toxicity; 0/4; assay type: functional; conditions: route oral
Rattus norvegicus [34] = experiment: The compound was tested peroral dose of 40 mg/kg for 0.5 hours for rotarod toxicity; 0/4; assay type: functional; conditions: route oral
Rattus norvegicus [35] = experiment: The compound was tested peroral dose of 40 mg/kg for 1 hour for rotarod toxicity; 0/4; assay type: functional; conditions: route oral
Rattus norvegicus [36] = experiment: The compound was tested peroral dose of 40 mg/kg for 2 hours for rotarod toxicity; 0/4; assay type: functional; conditions: route oral
Rattus norvegicus [37] = experiment: The compound was tested peroral dose of 40 mg/kg for 0.25 hours for maximal electroshock test on rats; MES= 3/4; assay type: functional; conditions: route oral
Rattus norvegicus [38] = experiment: The compound was tested peroral dose of 40 mg/kg for 0.5 hours for maximal electroshock test on rats; MES= 3/4; assay type: functional; conditions: route oral
Rattus norvegicus [39] = experiment: The compound was tested peroral dose of 40 mg/kg for 1 hour for maximal electroshock test on rats; MES= 1/4; assay type: functional; conditions: route oral
Rattus norvegicus [40] = experiment: The compound was tested peroral dose of 40 mg/kg for 2 hours for maximal electroshock test on rats; MES= 1/4; assay type: functional; conditions: route oral
Rattus norvegicus [41] = experiment: The compound was tested peroral dose of 40 mg/kg for 4 hours for maximal electroshock test on rats; MES= 0/4; assay type: functional; conditions: route oral
Rattus norvegicus [42] = species on record: Rattus norvegicus; experiment: as §2; assay type: functional
Sigma 2 receptor = experiment: Affinity on sigma 2 receptor using [3H]- DTG as radioligand
[43] = target: Sigma non-opioid intracellular receptor 1 (Homo sapiens) (UniProt Q99720); experiment: Ratio between the Ki(nM)values of sigma-2 and sigma-1; assay type: functional
Sequence of Sigma non-opioid intracellular receptor 1 (Homo sapiens) (Q99720 whole entry): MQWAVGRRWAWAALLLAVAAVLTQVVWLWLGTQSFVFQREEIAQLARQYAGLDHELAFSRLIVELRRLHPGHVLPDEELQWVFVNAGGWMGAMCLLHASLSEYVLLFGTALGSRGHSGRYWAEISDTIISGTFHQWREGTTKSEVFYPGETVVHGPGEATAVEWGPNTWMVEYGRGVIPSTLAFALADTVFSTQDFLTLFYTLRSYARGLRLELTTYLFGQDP

[44] = The compound was tested for neurologic toxicity (rotarod) test for 30 min in mice; active at 300 mg/kg; assay type: organism-based; parameters: dose 300 mg/kg; conditions: mouse, in vivo, 0.5 h
[45] = The compound was tested for neurologic toxicity (rotarod) test for 4 hours in mice; no activity or no toxicity at 300 mg/kg; assay type: organism-based; parameters: dose 300 mg/kg; conditions: mouse, in vivo
[46] = as §1; assay type: ADME; conditions: rat
Rattus norvegicus [47] = experiment: The compound was tested peroral dose of 40 mg/kg for 4 hours for rotarod toxicity; 0/4; assay type: functional; conditions: route oral

SMILES: Oc1nc2ccc(Cc3ccccc3)cc2o1
- Activity (Mus musculus [1]): 0.5 h
- MES (Mus musculus [2]): active at 100 mg/kg
- MES (Mus musculus [3]): active at 100 mg/kg
- ED50 (Mus musculus [4]): 68.3 mg/kg
- ED50 (Mus musculus [5]): 77.2 mg/kg
- scMet (Mus musculus [6]): active at 100 mg/kg
- scMet (Mus musculus [7]): active at 100 mg/kg
- ED50 (Rattus norvegicus [8]): 23.1 mg/kg
- No. of animals exhibiting toxicity / Number of animals tested (Rattus norvegicus [9]): 0
- No. of animals exhibiting toxicity / Number of animals tested (Rattus norvegicus [10]): 0
- No. of animals exhibiting toxicity / Number of animals tested (Rattus norvegicus [11]): 0
- No. of animals exhibiting toxicity / Number of animals tested (Rattus norvegicus [12]): 0
- Protected/Tested (Rattus norvegicus [13]): 3
- Protected/Tested (Rattus norvegicus [14]): 3
- Protected/Tested (Rattus norvegicus [15]): 2
- Protected/Tested (Rattus norvegicus [16]): 2
- Protected/Tested (Rattus norvegicus [17]): 0
- TD50 (Rattus norvegicus [18]): > 500 mg/kg
- Rotarod toxicity [19]: active at 100 mg/kg
- TD50 [20]: 164 mg/kg
- Toxicity [21]: 1 h
- Rotarod toxicity [22]: active at 100 mg/kg
- PI [23]: 21.7
- No. of animals exhibiting toxicity / Number of animals tested (Rattus norvegicus [24]): 0

SMILES: O=C1NC(=O)C(c2ccccc2)(c2ccccc2)N1 [PHENYTOIN]
- ED50 (Mus musculus [25]): > 300 mg/kg
- TD50 (Rattus norvegicus [26]): > 3000 mg/kg

SMILES: CCC(=O)c1ccc2c(c1)sc(=O)n2CCN1CCCCC1
- Activity (Mus musculus [1]): 0.25 h
- MES (Mus musculus [27]): active at 30 mg/kg
- MES (Mus musculus [28]): active at 30 mg/kg
- ED50 (Mus musculus [29]): 8.7 mg/kg
- ED50 (Mus musculus [5]): > 55 mg/kg
- scMet (Mus musculus [30]): No activity or no toxicity at 300 mg/kg
- scMet (Mus musculus [31]): No activity or no toxicity at 300 mg/kg
- ED50 (Rattus norvegicus [32]): 27.2 mg/kg
- No. of animals exhibiting toxicity / Number of animals tested (Rattus norvegicus [33]): 0
- No. of animals exhibiting toxicity / Number of animals tested (Rattus norvegicus [34]): 0
- No. of animals exhibiting toxicity / Number of animals tested (Rattus norvegicus [35]): 0
- No. of animals exhibiting toxicity / Number of animals tested (Rattus norvegicus [36]): 0
- Protected/Tested (Rattus norvegicus [37]): 3
- Protected/Tested (Rattus norvegicus [38]): 3
- Protected/Tested (Rattus norvegicus [39]): 1
- Protected/Tested (Rattus norvegicus [40]): 1
- Protected/Tested (Rattus norvegicus [41]): 0
- PI (Rattus norvegicus [42]): 4
- Ki (Sigma 2 receptor): 481 nM
- Ratio [43]: 10
- Rotarod toxicity [44]: active at 300 mg/kg
- TD50 [20]: 46.3 mg/kg
- Toxicity [21]: 0.25 h
- Rotarod toxicity [45]: active at 300 mg/kg
- TD50 [46]: > 110 mg/kg
- No. of animals exhibiting toxicity / Number of animals tested (Rattus norvegicus [47]): 0
